Source: patent US20230085307A1, “PYRIDAZINONE COMPOUND AND HERBICIDE” (NISSAN CHEMICAL CORPORATION, priority 2019, published 2023)

Columns and labels:
[1] = tested on: late watergrass; experiment: Test Example 1: herbicidal activity, application before weed generation under submerged conditions (Table 16, symbol A); assay type: in vivo, late watergrass (Echinochloa oryzicola); conditions: 320 g/ha applied herbicide
Method in brief: (§1)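 Alluvial soil was flooded to 4 cm depth, weed seeds were sown mixed and 2.5-leaf rice seedlings were transplanted. On sowing day, the compound's emulsion, diluted in water to a set dose, was applied to the water surface. Plants grew at 25–30 °C and were scored 0–5 after three weeks.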

[2] = tested on: Japanese bulrush; experiment: Test Example 1: herbicidal activity, application before weed generation under submerged conditions (Table 16, symbol B); assay type: in vivo, Japanese bulrush (Schoenoplectus juncoides); conditions: 320 g/ha applied herbicide
Method in brief: as §1

[3] = tested on: oval-leafed pondweed; experiment: Test Example 1: herbicidal activity, application before weed generation under submerged conditions (Table 16, symbol C); assay type: in vivo, oval-leafed pondweed (Monochoria vaginalis); conditions: 320 g/ha applied herbicide
Method in brief: as §1

[4] = tested on: barnyard grass; experiment: Test Example 3: herbicidal effect by foliage application, Wagner pot (Table 18, symbol H); assay type: in vivo, barnyard grass (Echinochloa crus-galli); conditions: amount of applied herbicide 320 g/ha
Method in brief: (§2)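 Plants were sown in alluvial soil held under 0.1–0.5 cm standing water and grown 14 days in a greenhouse at 25–30 °C. An emulsifiable formulation, water-diluted to the set dose, was then sprayed onto the foliage, and effects were scored three weeks later using previously defined criteria.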

[5] = tested on: Chinese sprangletop; experiment: Test Example 3: herbicidal effect by foliage application, Wagner pot (Table 18, symbol D); assay type: in vivo, chinese sprangletop (Leptochloa chinensis); conditions: amount of applied herbicide 320 g/ha
Method in brief: as §2

[6] = tested on: rice flat sedge; experiment: Test Example 3: herbicidal effect by foliage application, Wagner pot (Table 18, symbol E); assay type: in vivo, rice flat sedge (Cyperus iria); conditions: amount of applied herbicide 320 g/ha
Method in brief: as §2

[7] = tested on: southern crabgrass; experiment: Test Example 4: herbicidal effect by soil treatment (Table 19, symbol F); assay type: in vivo, southern crabgrass (Digitaria ciliaris); conditions: amount of applied herbicide 320 g/ha
Method in brief: (§3)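 Scoring uses the grading scale of an earlier test, three weeks post-application. Treatment consists of spraying a diluted emulsion formulation across the surface of sterilized diluvial soil in which seeds are buried near 1.5 cm deep; boxes are kept in a greenhouse between 25° C. and 30° C.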

[8] = tested on: green foxtail; experiment: Test Example 4: herbicidal effect by soil treatment (Table 19, symbol G); assay type: in vivo, green foxtail (Setaria viridis); conditions: amount of applied herbicide 320 g/ha
Method in brief: as §3

[9] = tested on: barnyard grass; experiment: Test Example 4: herbicidal effect by soil treatment (Table 19, symbol H); assay type: in vivo, barnyard grass (Echinochloa crus-galli); conditions: amount of applied herbicide 320 g/ha
Method in brief: as §3

[10] = tested on: wild oat; experiment: Test Example 4: herbicidal effect by soil treatment (Table 19, symbol I); assay type: in vivo, wild oat (Avena fatua); conditions: amount of applied herbicide 320 g/ha
Method in brief: as §3

[11] = tested on: blackgrass; experiment: Test Example 4: herbicidal effect by soil treatment (Table 19, symbol J); assay type: in vivo, blackgrass (Alopecurus myosuroides); conditions: amount of applied herbicide 320 g/ha
Method in brief: as §3

[12] = tested on: Italian ryegrass; experiment: Test Example 4: herbicidal effect by soil treatment (Table 19, symbol K); assay type: in vivo, Italian ryegrass (Lolium multiflorum); conditions: amount of applied herbicide 320 g/ha
Method in brief: as §3

[13] = tested on: windgrass; experiment: Test Example 4: herbicidal effect by soil treatment (Table 19, symbol L); assay type: in vivo, windgrass (Apera spica-venti); conditions: amount of applied herbicide 320 g/ha
Method in brief: as §3

[14] = tested on: velvetleaf; experiment: Test Example 4: herbicidal effect by soil treatment (Table 19, symbol M); assay type: in vivo, velvetleaf (Abutilon theophrasti); conditions: amount of applied herbicide 320 g/ha
Method in brief: as §3

[15] = tested on: redroot pigweed; experiment: Test Example 4: herbicidal effect by soil treatment (Table 19, symbol N); assay type: in vivo, redroot pigweed (Amaranthus retroflexus); conditions: amount of applied herbicide 320 g/ha
Method in brief: as §3

[16] = tested on: lambsquarters; experiment: Test Example 4: herbicidal effect by soil treatment (Table 19, symbol O); assay type: in vivo, lambsquarters (Chenopodium album); conditions: amount of applied herbicide 320 g/ha
Method in brief: as §3

[17] = tested on: chickweed; experiment: Test Example 4: herbicidal effect by soil treatment (Table 19, symbol P); assay type: in vivo, common chickweed (Stellaria media); conditions: amount of applied herbicide 320 g/ha
Method in brief: as §3

[18] = tested on: persian speedwell; experiment: Test Example 4: herbicidal effect by soil treatment (Table 19, symbol R); assay type: in vivo, Persian speedwell (Veronica persica); conditions: amount of applied herbicide 320 g/ha
Method in brief: as §3

[19] = tested on: southern crabgrass; experiment: Test Example 5: herbicidal effect by foliage application, plastic box (Table 20, symbol F); assay type: in vivo, southern crabgrass (Digitaria ciliaris); conditions: foliage application, AAH 320 g/ha, evaluated three weeks after application
Method in brief: (§4)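 Post-emergence foliar test in sterilized diluvial soil. Compound applied as water-diluted emulsion at a predetermined rate to 14-day-old plants; evaluation at three weeks.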

[20] = tested on: green foxtail; experiment: Test Example 5: herbicidal effect by foliage application, plastic box (Table 20, symbol G); assay type: in vivo, green foxtail (Setaria viridis); conditions: foliage application, AAH 320 g/ha, evaluated three weeks after application
Method in brief: as §4

[21] = tested on: barnyard grass; experiment: Test Example 5: herbicidal effect by foliage application, plastic box (Table 20, symbol H); assay type: in vivo, barnyard grass (Echinochloa crus-galli); conditions: foliage application, AAH 320 g/ha, evaluated three weeks after application
Method in brief: as §4

[22] = tested on: wild oat; experiment: Test Example 5: herbicidal effect by foliage application, plastic box (Table 20, symbol I); assay type: in vivo, wild oat (Avena fatua); conditions: foliage application, AAH 320 g/ha, evaluated three weeks after application
Method in brief: as §4

[23] = tested on: blackgrass; experiment: Test Example 5: herbicidal effect by foliage application, plastic box (Table 20, symbol J); assay type: in vivo, blackgrass (Alopecurus myosuroides); conditions: foliage application, AAH 320 g/ha, evaluated three weeks after application
Method in brief: as §4

[24] = tested on: Italian ryegrass; experiment: Test Example 5: herbicidal effect by foliage application, plastic box (Table 20, symbol K); assay type: in vivo, Italian ryegrass (Lolium multiflorum); conditions: foliage application, AAH 320 g/ha, evaluated three weeks after application
Method in brief: as §4

[25] = tested on: windgrass; experiment: Test Example 5: herbicidal effect by foliage application, plastic box (Table 20, symbol L); assay type: in vivo, windgrass (Apera spica-venti); conditions: foliage application, AAH 320 g/ha, evaluated three weeks after application
Method in brief: as §4

[26] = tested on: velvetleaf; experiment: Test Example 5: herbicidal effect by foliage application, plastic box (Table 20, symbol M); assay type: in vivo, velvetleaf (Abutilon theophrasti); conditions: foliage application, AAH 320 g/ha, evaluated three weeks after application
Method in brief: as §4

[27] = tested on: redroot pigweed; experiment: Test Example 5: herbicidal effect by foliage application, plastic box (Table 20, symbol N); assay type: in vivo, redroot pigweed (Amaranthus retroflexus); conditions: foliage application, AAH 320 g/ha, evaluated three weeks after application
Method in brief: as §4

[28] = tested on: lambsquarters; experiment: Test Example 5: herbicidal effect by foliage application, plastic box (Table 20, symbol O); assay type: in vivo, lambsquarters (Chenopodium album); conditions: foliage application, AAH 320 g/ha, evaluated three weeks after application
Method in brief: as §4

[29] = tested on: chickweed; experiment: Test Example 5: herbicidal effect by foliage application, plastic box (Table 20, symbol P); assay type: in vivo, common chickweed (Stellaria media); conditions: foliage application, AAH 320 g/ha, evaluated three weeks after application
Method in brief: as §4

[30] = tested on: false cleavers; experiment: Test Example 5: herbicidal effect by foliage application, plastic box (Table 20, symbol Q); assay type: in vivo, false cleavers (Galium spurium); conditions: foliage application, AAH 320 g/ha, evaluated three weeks after application
Method in brief: as §4

[31] = tested on: persian speedwell; experiment: Test Example 5: herbicidal effect by foliage application, plastic box (Table 20, symbol R); assay type: in vivo, Persian speedwell (Veronica persica); conditions: foliage application, AAH 320 g/ha, evaluated three weeks after application
Method in brief: as §4

Structure (SMILES) | Herbicidal effect on A: late watergrass (grade 0-5) [1] | Herbicidal effect on B: Japanese bulrush (grade 0-5) [2] | Herbicidal effect on C: oval-leafed pondweed (grade 0-5) [3] | herbicidal effect on H: barnyard grass [4] | herbicidal effect on D: Chinese sprangletop [5] | herbicidal effect on E: rice flat sedge [6] | herbicidal effect on F: southern crabgrass [7] | herbicidal effect on G: green foxtail [8] | herbicidal effect on H: barnyard grass [9] | herbicidal effect on I: wild oat [10] | herbicidal effect on J: blackgrass [11] | herbicidal effect on K: Italian ryegrass [12] | herbicidal effect on L: windgrass [13] | herbicidal effect on M: velvetleaf [14] | herbicidal effect on N: redroot pigweed [15] | herbicidal effect on O: lambsquarters [16] | herbicidal effect on P: chickweed [17] | herbicidal effect on R: persian speedwell [18] | F: southern crabgrass, herbicidal effect (criteria 0-5) [19] | G: green foxtail, herbicidal effect (criteria 0-5) [20] | further results
Cc1nn(C)c(=O)c(-c2c(-c3ccc(OC(F)F)cc3)sc3ccc(F)cc23)c1OS(=O)(=O)c1ccc(Cl)cc1 [2-311] | 3 (Herbicidal rate of 40% or more and less than 70%) | 3 (Herbicidal rate of 40% or more and less than 70%) | 3 (Herbicidal rate of 40% or more and less than 70%) | 5 (Herbicidal rate of 90% or more (almost completely withered)) | 2 (Herbicidal rate of 20% or more and less than 40%) | 4 (Herbicidal rate of 70% or more and less than 90%) | 0 (Herbicidal rate of 5% or less (almost no effect)) | 0 (Herbicidal rate of 5% or less (almost no effect)) | 0 (Herbicidal rate of 5% or less (almost no effect)) | 0 (Herbicidal rate of 5% or less (almost no effect)) | 0 (Herbicidal rate of 5% or less (almost no effect)) | 4 (Herbicidal rate of 70% or more and less than 90%) | 0 (Herbicidal rate of 5% or less (almost no effect)) | 2 (Herbicidal rate of 20% or more and less than 40%) | 4 (Herbicidal rate of 70% or more and less than 90%) | 5 (Herbicidal rate of 90% or more (almost completely withered)) | 3 (Herbicidal rate of 40% or more and less than 70%) | 4 (Herbicidal rate of 70% or more and less than 90%) | 2 (Herbicidal rate of 20% or more and less than 40%) | 5 (Herbicidal rate of 90% or more (almost completely withered)) | H: barnyard grass, herbicidal effect (criteria 0-5) [21]: 5 (Herbicidal rate of 90% or more (almost completely withered)); I: wild oat, herbicidal effect (criteria 0-5) [22]: 3 (Herbicidal rate of 40% or more and less than 70%); J: blackgrass, herbicidal effect (criteria 0-5) [23]: 3 (Herbicidal rate of 40% or more and less than 70%); K: Italian ryegrass, herbicidal effect (criteria 0-5) [24]: 5 (Herbicidal rate of 90% or more (almost completely withered)); L: windgrass, herbicidal effect (criteria 0-5) [25]: 4 (Herbicidal rate of 70% or more and less than 90%); M: velvetleaf, herbicidal effect (criteria 0-5) [26]: 5 (Herbicidal rate of 90% or more (almost completely withered)); N: redroot pigweed, herbicidal effect (criteria 0-5) [27]: 5 (Herbicidal rate of 90% or more (almost completely withered)); O: lambsquarters, herbicidal effect (criteria 0-5) [28]: 5 (Herbicidal rate of 90% or more (almost completely withered)); P: chickweed, herbicidal effect (criteria 0-5) [29]: 5 (Herbicidal rate of 90% or more (almost completely withered)); Q: false cleavers, herbicidal effect (criteria 0-5) [30]: 5 (Herbicidal rate of 90% or more (almost completely withered)); R: persian speedwell, herbicidal effect (criteria 0-5) [31]: 5 (Herbicidal rate of 90% or more (almost completely withered))
Cc1ccc(S(=O)(=O)Oc2c(C)nn(C)c(=O)c2-c2c(-c3ccc(OC(F)F)cc3)sc3ccc(F)cc23)cc1 [2-312] | 2 (Herbicidal rate of 20% or more and less than 40%) | 3 (Herbicidal rate of 40% or more and less than 70%) | 0 (Herbicidal rate of 5% or less (almost no effect)) | 5 (Herbicidal rate of 90% or more (almost completely withered)) | 3 (Herbicidal rate of 40% or more and less than 70%) | 5 (Herbicidal rate of 90% or more (almost completely withered)) | 0 (Herbicidal rate of 5% or less (almost no effect)) | 0 (Herbicidal rate of 5% or less (almost no effect)) | 1 (Herbicidal rate of 5% or more and less than 20%) | 0 (Herbicidal rate of 5% or less (almost no effect)) | 3 (Herbicidal rate of 40% or more and less than 70%) | 5 (Herbicidal rate of 90% or more (almost completely withered)) | 0 (Herbicidal rate of 5% or less (almost no effect)) | 3 (Herbicidal rate of 40% or more and less than 70%) | 5 (Herbicidal rate of 90% or more (almost completely withered)) | 4 (Herbicidal rate of 70% or more and less than 90%) | 5 (Herbicidal rate of 90% or more (almost completely withered)) | 5 (Herbicidal rate of 90% or more (almost completely withered)) | 1 (Herbicidal rate of 5% or more and less than 20%) | 4 (Herbicidal rate of 70% or more and less than 90%) | H: barnyard grass, herbicidal effect (criteria 0-5) [21]: 5 (Herbicidal rate of 90% or more (almost completely withered)); I: wild oat, herbicidal effect (criteria 0-5) [22]: 3 (Herbicidal rate of 40% or more and less than 70%); J: blackgrass, herbicidal effect (criteria 0-5) [23]: 4 (Herbicidal rate of 70% or more and less than 90%); K: Italian ryegrass, herbicidal effect (criteria 0-5) [24]: 5 (Herbicidal rate of 90% or more (almost completely withered)); L: windgrass, herbicidal effect (criteria 0-5) [25]: 4 (Herbicidal rate of 70% or more and less than 90%); M: velvetleaf, herbicidal effect (criteria 0-5) [26]: 5 (Herbicidal rate of 90% or more (almost completely withered)); N: redroot pigweed, herbicidal effect (criteria 0-5) [27]: 5 (Herbicidal rate of 90% or more (almost completely withered)); O: lambsquarters, herbicidal effect (criteria 0-5) [28]: 5 (Herbicidal rate of 90% or more (almost completely withered)); P: chickweed, herbicidal effect (criteria 0-5) [29]: 5 (Herbicidal rate of 90% or more (almost completely withered)); Q: false cleavers, herbicidal effect (criteria 0-5) [30]: 5 (Herbicidal rate of 90% or more (almost completely withered)); R: persian speedwell, herbicidal effect (criteria 0-5) [31]: 5 (Herbicidal rate of 90% or more (almost completely withered))
